In US11028054B2, “1, 4, 6-trisubstituted-2-alkyl-1H-benzo[d]imidazole derivatives as dihydroorotate oxygenase inhibitors” (Merck Patent GmbH, priority 2017, dated 2021):

Molecular target: DHODH (Homo sapiens (Human), UniProt Q02127)
Test: Measurement of DHODH inhibitory enzyme activity (coupled DCIP reduction assay)
Assay type: biochemical
Excerpt: Measurement of DHODH Inhibitory Enzyme Activity (In Vitro Assays)
The DHODH activity assay is a coupled enzyme assay in which oxidation of DHO and subsequent reduction of ubiquinone are stoichiometrically equivalent to the reduction of DCIP ([…]). The reduction of DCIP is accompanied by a loss of absorbance at 610 nm.
Reagents used: L-Dihydroorotic acid, Sigma, D7128, 2,6-Dichloroindophenol sodium salt hydrate, sigma, D1878 Dimethyl sulfoxide (DMSO), spectroscopic grade purchased from Spectrochem, cat no. 0704209, B. no.—3183650 Decylubiquinone, Sigma, D7911.
Preparation of Solutions/Reagents:
Buffer Preparation: 50 mM tris HCl, 150 mM KCl, and pH 8.0, 0.8% triton.
L-Dihydroorotic acid stock solution of 20 mM in buffer.
2, 6-Dichloroindophenol Sodium salt hydrate stock solution of 20 mM in buffer.
Decylubiquinone stock solution of 20 mM in buffer.
5 μL of Dimethyl sulfoxide or a compound of formula (I) in DMSO solution was added to the wells of a 96 well plate. Compounds of formula (I) were measured at 10 μM.
Protein along with buffer was added, so that the total volume including the DMSO was 87 μL. Compound and protein were incubated for half an hour at room temperature after mixing. 5 μL of 20 mM solution of L-Dihydroorotic acid, 5 μL of 2 mM solution of Decylubiquinone and 3 μL of 2 mM solution of 2, 6-Dichloroindophenol sodium salt hydrate were added to the above solution (total assay volume 100 μL). The mixture was stirred for 2 min and absorbance was recorded at every 10 min at 610 nanometers.
Percent inhibition is calculated as follows 100*{(Abs610 for reaction containing compound)−(Abs610 for positive control) (Abs610 for no enzyme reaction)−(Abs610 for positive control) Reaction containing compound has compound, buffer, enzyme and substrates Positive control contains DMSO, buffer, enzyme and substrates No Enzyme reaction contains DMSO, buffer and substrates IC50 determination: A 2 mM DMSO stock solution of the selected 1, 4, 6-trisubstituted-2-alkyl-1H-benzo[d]imidazole derivatives of formula (I) of the present invention to be examined was prepared. Subsequent ⅓rd dilutions were made as follows:
5 μL of each stock of compound of formula (I) (solution indicated in column 4 of table) was used for each 100 μL assay. Therefore, 5 μL of the 2 mM stock provided 100 μL of 100 μM solution of compound of formula (I), when made up with buffer, protein and substrate. See also: Ulrich et al. (2001) Eur. J. Biochem. 268, 1861-1868.

DHODH, sequence (Q02127 whole entry): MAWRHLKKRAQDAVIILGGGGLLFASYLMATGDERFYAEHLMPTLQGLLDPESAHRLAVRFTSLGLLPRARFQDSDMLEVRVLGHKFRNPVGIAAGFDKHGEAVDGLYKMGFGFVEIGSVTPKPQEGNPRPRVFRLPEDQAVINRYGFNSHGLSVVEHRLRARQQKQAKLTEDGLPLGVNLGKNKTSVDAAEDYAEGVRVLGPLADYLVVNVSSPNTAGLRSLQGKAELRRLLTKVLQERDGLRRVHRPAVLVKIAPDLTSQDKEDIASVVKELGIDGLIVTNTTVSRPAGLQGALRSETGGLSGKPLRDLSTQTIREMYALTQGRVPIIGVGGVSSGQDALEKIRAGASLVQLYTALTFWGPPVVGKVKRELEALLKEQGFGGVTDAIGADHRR

Row | IC50 | Compound
1 | > 100 nM | Cc1nc2c(C(=O)O)cc(-c3ccc(-c4cccc(F)c4F)cc3)cc2[nH]1 [Example 4, 6-(2',3'-difluoro-[1,1'-biphenyl]-4-yl)-2-methyl-1H-benzo[d]imidazole-4-carboxylic acid]
2 | 10 to 99 nM | Cc1nc2c(C(=O)O)cc(-c3ccc(-c4cccc(OCc5ccccc5)c4)cc3)cc2[nH]1 [Example 15, 6-(3'-(benzyloxy)-[1,1'-biphenyl]-4-yl)-2-methyl-1H-benzo[d]imidazole-4-carboxylic acid]
3 | 10 to 99 nM | Cc1nc2c(C(=O)O)cc(-c3ccc(-c4cccc(O)c4)cc3)cc2[nH]1 [Example 16, 6-(3'-hydroxy-[1,1'-biphenyl]-4-yl)-2-methyl-1H-benzo[d]imidazole-4-carboxylic acid]
4 | 10 to 99 nM | Cc1nc2c(C(=O)O)cc(-c3ccc(-c4ccccc4OCc4ccccc4)cc3)cc2[nH]1 [Example 17, 6-(2'-(benzyloxy)-[1,1'-biphenyl]-4-yl)-2-methyl-1H-benzo[d]imidazole-4-carboxylic acid]
5 | 10 to 99 nM | Cc1nc2c(C(=O)O)cc(-c3ccc(-c4ccc(O)cc4)cc3)cc2[nH]1 [Example 20, 6-(4'-hydroxy-[1,1'-biphenyl]-4-yl)-2-methyl-1H-benzo[d]imidazole-4-carboxylic acid]
6 | 10 to 99 nM | COc1cccc(-c2ccc(-c3cc(C(=O)O)c4nc(C)[nH]c4c3)cc2)c1F [Example 21, 6-(2'-fluoro-3'-methoxy-[1,1'-biphenyl]-4-yl)-2-methyl-1H-benzo[d]imidazole-4-carboxylic acid]
7 | 10 to 99 nM | Cc1nc2c(C(=O)O)cc(-c3ccc(-c4ccccc4O)cc3)cc2[nH]1 [Example 23, 6-(2'-hydroxy-[1,1'-biphenyl]-4-yl)-2-methyl-1H-benzo[d]imidazole-4-carboxylic acid]
8 | 10 to 99 nM | Cc1nc2c(C(=O)O)cc(-c3ccc(-c4cccc(CN5CCS(=O)(=O)CC5)c4)cc3)cc2[nH]1 [Example 36, 6-(3'-((1,1-dioxidothiomorpholino)methyl)-[1,1'-biphenyl]-4-yl)-2-methyl-1H-benzo[d]imidazole-4-carboxylic acid.2,2,2-trifluoroacetic acid]
9 | 10 to 99 nM | Cc1nc2c(C(=O)O)cc(-c3ccc(-c4cccc(CNC(C)(C)C)c4)cc3)cc2[nH]1 [Example 39, 6-(3'-((tert-butylamino)methyl)-[1,1'-biphenyl]-4-yl)-2-methyl-1H-benzo[d]imidazole-4-carboxylic acid.2,2,2-trifluoroacetic acid]
10 | 10 to 99 nM | Cc1nc2c(C(=O)O)cc(-c3ccc(-c4ccccc4CN4CCCCC4)cc3)cc2[nH]1 [Example 42, 2-methyl-6-(2'-(piperidin-1-ylmethyl)-[1,1'-biphenyl]-4-yl)-1H-benzo[d]imidazole-4-carboxylic acid.2,2,2-trifluoroacetic acid]
11 | 10 to 99 nM | Cc1nc2c(C(=O)O)cc(-c3ccc(-c4ccccc4CN4CCOCC4)cc3)cc2[nH]1 [Example 45, 2-methyl-6-(2'-(morpholinomethyl)-[1,1'-biphenyl]-4-yl)-1H-benzo[d]imidazole-4-carboxylic acid.2,2,2-trifluoroacetic acid]
12 | 1 to 9.9 nM | Cc1nc2c(C(=O)O)cc(-c3ccc(-c4ccccc4CN4CCCC4)cc3)cc2[nH]1 [Example 46, 2-methyl-6-(2'-(pyrrolidin-1-ylmethyl)-[1,1'-biphenyl]-4-yl)-1H-benzo[d]imidazole-4-carboxylic acid.2,2,2-trifluoroacetic acid]
13 | 1 to 9.9 nM | Cc1nc2c(C(=O)O)cc(-c3c(F)c(F)c(-c4ccccc4)c(F)c3F)cc2[nH]1 [Example 52, 2-methyl-6-(2,3,5,6-tetrafluoro-[1,1'-biphenyl]-4-yl)-1H-benzo[d]imidazole-4-carboxylic acid]
14 | 1 to 9.9 nM | Cc1nc2c(C(=O)O)cc(-c3c(F)c(F)c(-c4ccccc4CN4CCCCC4)c(F)c3F)cc2[nH]1 [Example 53, 2-methyl-6-(2,3,5,6-tetrafluoro-2'-(piperidin-1-ylmethyl)-[1,1'-biphenyl]-4-yl)-1H-benzo[d]imidazole-4-carboxylic acid.2,2,2-trifluoroacetic acid]
15 | 1 to 9.9 nM | Cc1nc2c(C(=O)O)cc(-c3c(F)c(F)c(-c4cccc(CN5CCCCC5)c4)c(F)c3F)cc2[nH]1 [Example 56, 2-methyl-6-(2,3,5,6-tetrafluoro-3'-(piperidin-1-ylmethyl)-[1,1'-biphenyl]-4-yl)-1H-benzo[d]imidazole-4-carboxylic acid.2,2,2-trifluoroacetic acid]
16 | 1 to 9.9 nM | Cc1nc2c(C(=O)O)cc(-c3c(F)c(F)c(-c4cccc(CO)c4)c(F)c3F)cc2[nH]1 [Example 57, 2-methyl-6-(2,3,5,6-tetrafluoro-3'-(hydroxymethyl)-[1,1'-biphenyl]-4-yl)-1H-benzo[d]imidazole-4-carboxylic acid.2,2,2-trifluoroacetic acid]
17 | 10 to 99 nM | Cc1nc2c(C(=O)O)cc(-c3c(F)c(F)c(-c4cccc(CNC(C)C)c4)c(F)c3F)cc2[nH]1 [Example 59, 2-methyl-6-(2,3,5,6-tetrafluoro-3'-((isopropylamino)methyl)-[1,1'-biphenyl]-4-yl)-1H-benzo[d]imidazole-4-carboxylic acid.2,2,2-trifluoroacetic acid]
18 | 1 to 9.9 nM | Cc1nc2c(C(=O)O)cc(-c3c(F)c(F)c(-c4cccc(CNC5CC5)c4)c(F)c3F)cc2[nH]1 [Example 60, 6-(3'-((cyclopropylamino)methyl)-2,3,5,6-tetrafluoro-[1,1'-biphenyl]-4-yl)-2-methyl-1H-benzo[d]imidazole-4-carboxylic acid.2,2,2-trifluoroacetic acid]
19 | 1 to 9.9 nM | Cc1nc2c(C(=O)O)cc(-c3c(F)c(F)c(-c4ccc(CN5CCCCC5)cc4)c(F)c3F)cc2[nH]1 [Example 61, 2-methyl-6-(2,3,5,6-tetrafluoro-4'-(piperidin-1-ylmethyl)-[1,1'-biphenyl]-4-yl)-1H-benzo[d]imidazole-4-carboxylic acid.2,2,2-trifluoroacetic acid]
20 | 10 to 99 nM | Cc1nc2c(C(=O)O)cc(-c3c(F)c(F)c(-c4ccc(CN5CCCC5)cc4)c(F)c3F)cc2[nH]1 [Example 62, 2-methyl-6-(2,3,5,6-tetrafluoro-4'-(pyrrolidin-1-ylmethyl)-[1,1'-biphenyl]-4-yl)-1H-benzo[d]imidazole-4-carboxylic acid.2,2,2-trifluoroacetic acid]
21 | 1 to 9.9 nM | Cc1nc2c(C(=O)O)cc(-c3c(F)c(F)c(-c4ccc(CN5CCCC(F)(F)C5)cc4)c(F)c3F)cc2[nH]1 [Example 64, 6-(4'-((3,3-difluoropiperidin-1-yl)methyl)-2,3,5,6-tetrafluoro-[1,1'-biphenyl]-4-yl)-2-methyl-1H-benzo[d]imidazole-4-carboxylic acid.2,2,2-trifluoroacetic acid]
22 | 1 to 9.9 nM | Cc1nc2c(C(=O)O)cc(-c3c(F)c(F)c(-c4ccc(CN5CCS(=O)(=O)CC5)cc4)c(F)c3F)cc2[nH]1 [Example 65, 6-(4'-((1,1-dioxidothiomorpholino)methyl)-2,3,5,6-tetrafluoro-[1,1'-biphenyl]-4-yl)-2-methyl-1H-benzo[d]imidazole-4-carboxylic acid.2,2,2-trifluoroacetic acid]
23 | 1 to 9.9 nM | Cc1nc2c(C(=O)O)cc(-c3c(F)c(F)c(-n4c(C)ccc4C)c(F)c3F)cc2[nH]1 [Example 67, 6-(4-(2,5-dimethyl-1H-pyrrol-1-yl)-2,3,5,6-tetrafluorophenyl)-2-methyl-1H-benzo[d]imidazole-4-carboxylic acid]
24 | 1 to 9.9 nM | Cc1nc2c(C(=O)O)cc(-c3ccc(OCc4ccccc4)cc3)cc2[nH]1 [Example 69, 6-(4-(benzyloxy)phenyl)-2-methyl-1H-benzo[d]imidazole-4-carboxylic acid]
25 | 10 to 99 nM | Cc1nc2c(C(=O)O)cc(-c3ccc(-c4cccc(CO)c4)cc3)cc2[nH]1 [Example 90, 6-(3'-(hydroxymethyl)-[1,1'-biphenyl]-4-yl)-2-methyl-1H-benzo[d]imidazole-4-carboxylic acid]
26 | 1 to 9.9 nM | Cc1nc2c(C(=O)O)cc(-c3ccc(-n4c(C)ccc4C)cc3)cc2[nH]1 [Example 111, 6-(4-(2,5-dimethyl-1H-pyrrol-1-yl)phenyl)-2-methyl-1H-benzo[d]imidazole-4-carboxylic acid]
27 | 1 to 9.9 nM | Cc1nc2c(C(=O)O)cc(-c3ccc(-c4ccccc4CN4CC[C@@H](F)C4)cc3)cc2[nH]1 [Example 117, (R)-6-(2'-((3-fluoropyrrolidin-1-yl)methyl)-[1,1'-biphenyl]-4-yl)-2-methyl-1H-benzo[d]imidazole-4-carboxylic acid.2,2,2-trifluoroacetic acid]
